# Reference: patent US9657022B2, “7-OXO-1,6-diazabicyclo[3.2.1]octane derivatives and their use as antibacterial agents” (WOCKHARDT LIMITED, priority 2014, dated 2017)
# Where “and” joins values, the source holds several entries; their conditions need not be identical. Equal values may be shown once.
# Legend:
# K. pneumoniae H 525 = assay: Antibacterial activity (MIC), agar dilution per CLSI; assay type: cell-based; settings: Klebsiella pneumoniae, H525
# Procedure: (§1) The biological activity of representative compounds according to the invention against various bacterial strains was investigated. In a typical study, overnight grown bacterial cultures were diluted appropriately and inoculated on the agar media containing doubling dilutions of the test compounds. Observations for growth or no growth was performed after 16-20 hours of incubation at 35±2° C. in the ambient air. The overall procedure was performed as per Clinical and Laboratory Standards Institute (CLSI) recommendations, (Clinical and Laboratory Standards Institute (CLSI), Performance Standards for Antimicrobial Susceptibility Testing, 20th Informational Supplement, M07-A9, Volume 32, No. 2, 2012). Molten Mueller Hinton Agar (BD, USA) containing serial dilutions of each antibacterial agent were poured on to the plates and allowed to solidify. Appropriate suspensions from the freshly grown cultures were prepared in normal saline so that about 10^4 CFU/spot of the organism was delivered on to the drug containing agar plates using automated multipoint inoculator (Mast, UK). The plates were incubated in Biochemical oxygen demand (BOD) incubator at 37° C. for 18 hours and then examined for growth.
# (§2) Table 3 details the antibacterial activity of representative compound of Formula (I), (2S,5R)-sulfuric acid mono-{2-[N′-(2-(S)-pyrrolidin-2-yl-acetyl)-hydrazinocarbonyl]-7-oxo-1,6-diaza-bicyclo[3.2.1]oct-6-yl}ester (Compound of Example 1), against various Multi Drug Resistant (MDR) Gram-negative bacterial strains. The activities are expressed as Minimum Inhibitory Concentrations (MICs) (mcg/ml).
# E. coli M 50 = assay: as above; assay type: cell-based; settings: Escherichia coli, M50
# Procedure: as §1, §2
# E. coli M 49 = assay: as above; assay type: cell-based; settings: Escherichia coli, M49
# Procedure: as §1, §2
# P. aeruginosa R 20 = assay: as above; assay type: cell-based; settings: Pseudomonas aeruginosa, R20
# Procedure: as §1, §2
# E. coli 7 MP = assay: as above; assay type: cell-based; settings: Escherichia coli
# Procedure: as §1, §2
# P. aeruginosa ATCC 27853 = assay: as above; assay type: cell-based; settings: Pseudomonas aeruginosa, ATCC27853
# Procedure: as §1, §2
# K. pneumoniae S 21 = assay: as above; assay type: cell-based; settings: Klebsiella pneumoniae, S21
# Procedure: as §1, §2
# E. cloacae M 20 = assay: as above; assay type: cell-based; settings: Enterobacter cloacae, M20
# Procedure: as §1, §2
# C. frundaii 58 MP = assay: as above; assay type: cell-based
# Procedure: as §1, §2
# P. aeruginosa PAO1 = assay: as above; assay type: cell-based; settings: Pseudomonas aeruginosa
# Procedure: as §1, §2
# E. coli NCTC 13351 = assay: as above; assay type: cell-based; settings: Escherichia coli, NCTC13351
# Procedure: as §1, §2
# P. aeruginosa 2779 = assay: as above; assay type: cell-based; settings: Pseudomonas aeruginosa
# Procedure: as §1, §2
# E. coli NCTC 13352 = assay: as above; assay type: cell-based; settings: Escherichia coli, NCTC13352
# Procedure: as §1, §2
# [1] = target: T1, Class A beta-lactamase SHV 18 (K. pneumoniae ATCC 700603) (Klebsiella pneumoniae, UniProt P0AD64, E235K/G234A/I4F/R39S); assay: Beta-lactamase enzyme inhibition (Nitrocefin, crude enzyme); assay type: biochemical; settings: Class A, K. pneumoniae ATCC 700603 (SHV 18); read-out: Beta-lactamase enzyme inhibition IC50
# T1 sequence (P0AD64 1-286 I4F/R39S/G234A/E235K): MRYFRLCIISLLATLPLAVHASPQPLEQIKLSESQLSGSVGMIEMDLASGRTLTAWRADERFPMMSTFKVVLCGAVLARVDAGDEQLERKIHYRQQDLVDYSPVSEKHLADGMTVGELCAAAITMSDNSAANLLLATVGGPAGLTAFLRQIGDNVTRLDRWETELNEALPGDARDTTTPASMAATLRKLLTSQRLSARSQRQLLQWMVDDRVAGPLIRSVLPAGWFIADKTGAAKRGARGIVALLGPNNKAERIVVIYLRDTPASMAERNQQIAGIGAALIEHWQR
# Procedure: (§3) Absorbance was measured at 485 nm by UV-spectrophotometer. The IC50 was calculated by plotting absorbance against concentration through Sigmoidal dose response curve using Graph Pad software.
# The enzyme inhibition was expressed as IC50.
# [2] = system: K. pneumoniae H521 (KPC, SHV, TEM); assay: Antibacterial activity (MIC), agar dilution per CLSI; assay type: cell-based; settings: Klebsiella pneumoniae; K. pneumoniae H521 (KPC, SHV, TEM); read-out: MIC
# Procedure: as §1
# (§4) The strains selected for study included E. coli NCTC 13353 producing CTX-M15 and OXA-1 beta-lactamase enzymes; K. pneumoniae H521 producing KPC, SHV, TEM beta-lactamase enzymes; and K. pneumoniae S48 producing NDM, SHV, TEM beta-lactamase enzymes. The activities are expressed as Minimum Inhibitory Concentrations (MICs) (mcg/ml).
# (§5) The activities are expressed as Minimum Inhibitory Concentrations (MICs) (mcg/ml).
# [3] = system: E. coli NCTC 13353 (CTX-M15, OXA-1); assay: as above; assay type: cell-based; settings: Escherichia coli, NCTC13353; E. coli NCTC 13353 (CTX-M15, OXA-1); read-out: MIC
# Procedure: as §1, §4, §5
# [4] = target: Class D beta-lactamase OXA 26 (A. baumannii NCTC 13303) (Acinetobacter baumannii, UniProt Q9F0V2); assay: Beta-lactamase enzyme inhibition (Nitrocefin, crude enzyme); assay type: biochemical; settings: A. baumannii NCTC 13303 (OXA 26), read-out: Beta-lactamase enzyme inhibition IC50
# Sequence of Class D beta-lactamase OXA 26 (A. baumannii NCTC 13303) (Q9F0V2 entry or part of it): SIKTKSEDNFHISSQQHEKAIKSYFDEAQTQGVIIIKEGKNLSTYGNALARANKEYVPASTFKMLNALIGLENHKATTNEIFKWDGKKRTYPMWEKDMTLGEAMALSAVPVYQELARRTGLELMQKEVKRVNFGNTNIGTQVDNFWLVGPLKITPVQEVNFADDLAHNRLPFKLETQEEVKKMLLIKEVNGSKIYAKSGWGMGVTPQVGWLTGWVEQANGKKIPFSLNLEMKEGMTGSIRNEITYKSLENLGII
# Procedure: as §3
# [5] = target: T2, Class C beta-lactamase P99 (E. cloacae J137) (Enterobacter cloacae, UniProt P05364); assay: as above; assay type: biochemical
# T2 construct: preincubated mixture of crude enzyme and the compounds; endogenous in cells; host or cells: E. cloacae J137
# T2 sequence (P05364 21-381): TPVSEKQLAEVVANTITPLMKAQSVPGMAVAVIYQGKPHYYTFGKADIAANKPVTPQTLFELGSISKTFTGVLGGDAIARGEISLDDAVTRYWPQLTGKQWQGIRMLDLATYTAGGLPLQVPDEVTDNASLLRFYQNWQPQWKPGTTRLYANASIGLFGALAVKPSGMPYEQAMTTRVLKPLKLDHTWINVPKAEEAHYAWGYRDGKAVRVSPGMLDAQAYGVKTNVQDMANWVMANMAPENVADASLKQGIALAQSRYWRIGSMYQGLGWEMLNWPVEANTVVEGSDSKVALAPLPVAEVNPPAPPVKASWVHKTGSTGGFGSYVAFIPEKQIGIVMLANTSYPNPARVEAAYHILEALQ
# Procedure: as §3
smiles,measurement,setting,value
"NC(=O)[C@@H]1CC[C@@H]2CN1C(=O)N2OS(=O)(=O)O [Avibactam, avibactam, reference compound]",MIC,K. pneumoniae H 525,8 µg/mL
same,MIC,E. coli M 50,> 64 µg/mL
same,MIC,E. coli M 49,16 µg/mL
same,MIC,P. aeruginosa R 20,> 64 µg/mL
same,MIC,E. coli 7 MP,> 64 µg/mL
same,MIC,P. aeruginosa ATCC 27853,> 64 µg/mL
same,MIC,K. pneumoniae S 21,16 µg/mL
same,MIC,E. cloacae M 20,> 64 µg/mL
same,MIC,C. frundaii 58 MP,> 64 µg/mL
same,MIC,P. aeruginosa PAO1,> 64 µg/mL
same,MIC,E. coli NCTC 13351,> 64 µg/mL
same,MIC,P. aeruginosa 2779,> 64 µg/mL
same,MIC,E. coli NCTC 13352,> 64 µg/mL
same,IC50,[1],98 nM and 10 nM
same,MIC,[2],16 µg/mL
same,MIC,[3],16 µg/mL
same,IC50,[4],10100 nM
same,IC50,[5],79 nM
